We go through 9 molecules from ChEMBL document CHEMBL1130624, “In vitro inhibitory effects of DNA topoisomerase II by fernane-type triterpenoids isolated from a Euphorbia genus” (Bioorg Med Chem Lett, 1998).

Holding throughout (type): protein assay
Assay [1] deals with T1, DNA topoisomerase II (Homo sapiens) (UniProt P11388+Q02880). Kind of assay: Compound was tested in vitro for inhibitory effect on DNA topoisomerase II activity at a concentration of 50 uM; […].
Assay [2] deals with T1, DNA topoisomerase II (Homo sapiens). Kind of assay: Compound was tested in vitro for inhibitory effect on DNA topoisomerase II activity at a concentration of 6.3 uM; Slight inhibition.
Assay [3] has the same target. The experiment in a line: Compound was tested in vitro for inhibitory effect on DNA topoisomerase II activity at a concentration of 100 uM; […].
Assay [4] has the same target. The experiment in a line: Compound was tested in vitro for inhibitory effect on DNA topoisomerase II activity at a concentration of 12.5 uM; Evidence inhibition.
For assay [5] the target is unchanged. The experiment in a line: Compound was tested in vitro for inhibitory effect on DNA topoisomerase II activity at a concentration of 3.2 uM; No inhibition.
For assay [6] the target is unchanged. Kind of assay: Compound was tested in vitro for inhibitory effect on DNA topoisomerase II activity at a concentration of 25 uM; […].
The target is the same in assay [7]. Kind of assay: Compound was tested in vitro for inhibitory effect on DNA topoisomerase II activity at a concentration of 100 uM; No inhibition.
Assay [8] shares this target. Kind of assay: Compound was tested in vitro for inhibitory effect on DNA topoisomerase II activity at a concentration of 6.3 uM; No inhibition.
Assay [9] shares this target. The experiment in a line: Compound was tested in vitro for inhibitory effect on DNA topoisomerase II activity at a concentration of 12.5 uM; No inhibition.
Assay [10] shares this target. Kind of assay: Compound was tested in vitro for inhibitory effect on DNA topoisomerase II activity at a concentration of 100 uM; Evidence inhibition.
Assay [11] has the same target. The experiment in a line: Compound was tested in vitro for inhibitory effect on DNA topoisomerase II activity at a concentration of 50 uM; Slight inhibition.
The target is the same in assay [12]. The experiment in a line: Compound was tested in vitro for inhibitory effect on DNA topoisomerase II activity at a concentration of 25 uM; No inhibition.

Structures are written as SMILES. The source made the active and inactive calls. The rule behind the calls is not given here.

Take `C=C(C)[C@@H]1CC[C@@H]2C(=CC[C@@]3(C)[C@@H]4CC[C@H](C(C)C)[C@@]4(C)CC[C@]23C)[C@@]1(C)CCC(=O)O`: the Activity entry was “Slight inhibition” in assay [1]; “Slight inhibition” in [2]; “Slight inhibition” in [3]; “Evidence inhibition” in [4]; “Slight inhibition” in [6]. In addition, the outcome in assay [5] was inactive.

As for `CC(C)[C@H]1CC[C@@H]2[C@]1(C)CC[C@]1(C)C3=C(C(=O)C[C@@]21C)[C@@]1(C)CC[C@H](O)C(C)(C)C1CC3=O` (some centres undefined), the result in assay [7] was inactive.

In the case of `C=C(C)[C@@H]1CC[C@@H]2C(=CC[C@@]3(C)[C@@H]4CC[C@H](C(C)C)[C@@]4(C)CC[C@]23C)[C@@]1(C)CCCO`, the Activity result in assay [1] is recorded as “Slight inhibition”; in [2] it was “Slight inhibition”; in assay [3], “Slight inhibition”; in assay [4], “Evidence inhibition”; in [6] it was “Slight inhibition”. Besides, the outcome in assay [5] was inactive.

In the case of `CC(C)[C@H]1CC[C@@H]2[C@]1(C)CC[C@]1(C)C3=C(CC[C@@]21C)[C@@]1(C)CC[C@H](O)C(C)(C)C1CC3` (some centres undefined), in assay [7], the result was inactive.

Turning to `COc1cc([C@@H]2c3cc4c(cc3[C@@H](O[C@@H]3O[C@@H]5CO[C@@H](C)O[C@H]5[C@H](O)[C@H]3O)[C@H]3COC(=O)[C@H]23)OCO4)cc(OC)c1O`, the outcome in assay [8], in [9], in [5] and in assay [12] was inactive. The Activity result in assay [10] is recorded as “Evidence inhibition”; in assay [11] it was “Slight inhibition”.

For the molecule `C=C(C)[C@@H]1CC[C@@H]2C(=CC[C@@]3(C)[C@@H]4CC[C@H](C(C)C)[C@@]4(C)CC[C@]23C)[C@@]1(C)CCC(=O)OC`, the result in assay [7] was inactive.

With `CC(C)[C@H]1CC[C@@H]2[C@]1(C)CC[C@]1(C)C3=C(C(=O)C[C@@]21C)[C@@]1(C)CC[C@H](O)C(C)(C)C1C[C@@H]3O` (some centres undefined), the result in assay [7] was inactive.

On to `C=C(C)[C@@H]1CC[C@@H]2C(=CC[C@@]3(C)[C@@H]4CC[C@H](C(C)C)[C@@]4(C)CC[C@]23C)[C@@]1(C)CCC(=O)OCc1ccccc1`, for which the result in assay [8], in assay [9], in assay [5] and in [12] was inactive. The Activity result in [10] is given as “Evidence inhibition”; in [11], “Slight inhibition”.

Turning to `CC(C)[C@H]1CC[C@@H]2[C@]1(C)CC[C@]1(C)C3=C([C@H](O)C[C@@]21C)[C@@]1(C)CC[C@H](O)C(C)(C)C1CC3=O` (some centres undefined), the result in assay [7] was inactive.
